The target in series [1] is KIF18A (Homo sapiens (Human), UniProt Q8NI77). The series is described as follows: KIF18A Biochemical Assay (ATPase, ADP-Glo).
For series [2], the system named is OVCAR-3 cells. The series is described as follows: In vitro anti-proliferative activity assay in cancer cell line OVCAR-3 (CellTiter-Glo, 4- or 7-day). It counts as cell-based. The note with it: Homo sapiens, read-out: OVCAR-3 cellular antiproliferation assay IC50.
Series [3] has as its system human megakaryocyte (CFU-MK) progenitors from human bone marrow mononuclear cells. Put plainly: Human megakaryocyte progenitor colony formation assay (CFU-MK). It counts as cell-based. Conditions: 336 h, read-out: Free-fraction adjusted CFU-MK IC50.
Series [4] is described as follows: Caco-2 permeation assay, bidirectional permeability. The format is in vitro ADME. Conditions: human, Caco-2, pH 7.4, 5 μM, Papp(B-A)/Papp(A-B). As to the method:
1. Caco-2 Permeation Assay: Evaluation of the Bidirectional Permeabilities of Compounds.
Samples were analyzed through LC/MS/MS for estimating the apparent permeability coefficients (Papp) of compounds across Caco-2 cell monolayers. Caco-2 cells (American Type Culture Collection) were incubated and seeded onto HTS Transwell-96 Well Permeable Supports (Corning Corporation) for 14 days using a cell medium consisting of Dulbecco's Modified Eagle's Medium (DMEM) with high glucose and L-glutamine supplemented with 10% FBS, 1× penicillin-streptomycin mixture and 1×non-essential amino acids (NEAA). Cell monolayer integrity was measured using an automated tissue resistance measuring system (World Precision Instruments). Stock solutions of compounds and control compounds in DMSO were diluted with HBSS (10 mM HEPES, pH 7.4) to reach a final concentration of 5 μM with a final concentration of DMSO <0.1%. HBSS was then removed after 30 minutes of preincubation, and 75 μL of test compound was added to the apical compartment of the Transwell insert. The basolateral compartment was filled with 235 μL of HBSS (10 mM HEPES, pH 7.4) containing 2% BSA. Rate of drug transport in the basolateral to apical direction was obtained by adding 235 μL of test compound to the receiver plate wells (basolateral compartment) and filling with 75 μL of HBSS (10 mM HEPES, pH 7.4) containing 2% BSA. Time 0 samples were prepared by transferring 25 μL of 5 μM working solution to wells of the 96-deepwell plate containing 25 μL HBSS (10 mM HEPES and 2% BSA, pH 7.4), followed by the addition 200 μL of cold methanol containing appropriate internal standards (100 nM alprazolam, 200 nM labetalol, 200 nM caffeine and 200 nM diclofenac). After incubating at 37° C. for 2 h, 25 μL samples from donor sides (apical compartment) were transferred to a 96-well plate containing 25 μL HBSS (10 mM HEPES and 2% BSA, pH 7.4). 25 μL samples from receiver sides (basolateral compartment) were removed and transferred to a new plate containing 25 μL HBSS (10 mM HEPES, pH 7.4). 200 μL of cold methanol containing internal standards (100 nM alprazolam, 200 nM labetalol, 200 nM caffeine and 200 nM diclofenac) was added to terminate the reaction. Samples were vortexed for 5 minutes and then centrifuged at 3,220 g for 40 minutes. An aliquot of 100 μL of the supernatant is mixed with 100 μL of ultra-pure water for LC-MS/MS analysis. All incubations are performed in duplicate. Solutions were discarded from the transwell plate. 100 μL Lucifer Yellow solution (100 μM in HBSS) was added to each well of transwell insert and 300 μL of HBSS to each well of receiver. After incubating at 37° C. for 30 minutes, 80 μL was aliquotted from each well of apical and basolateral sides to a solid black plate. The plate was then read with Tecan Infinite™ M 200 (Excitation/Emission wavelength […]).
All calculations were carried out using Microsoft Excel. Peak areas were determined from extracted ion chromatograms. The leakage of Lucifer Yellow, in unit of percentage (%), can be calculated using the following equation: […]
LY leakage of <1% is acceptable to indicate the well-qualified Caco-2 monolayers. The apparent permeability coefficient (Papp), in units of centimeter per second, can be calculated for Caco-2 drug transport assays using the following equation: […]
Where VA is the volume (in mL) in the receiver well (0.235 mL for Ap→Bl flux and 0.075 mL for Bl→Ap flux), Area is the surface area of the membrane (0.143 cm^2 for HTS Transwell-96 Well Permeable Supports), and time is the total transport time in seconds. The efflux ratio can be determined using the following equation: […]
Where Papp (B-A) indicates the apparent permeability coefficient in basolateral to apical direction, and Papp (A-B) indicates the apparent permeability coefficient in apical to basolateral direction.
The recovery can be determined using the following equation: […]

Series [5] can be described thus: In vivo pharmacokinetic evaluation in mouse. The arrangement: species or system female balb/c nude mice. The note with it: for IV Clearance / Vd: 3 mg/kg IV; for Vd / Cmax / half-life: female, balb/c nude, plasma; for Vd: read-out: IV Vss; for Cmax / half-life: 10 mg/kg PO; for half-life: read-out: PO T1/2 (converted).
Series [6] has as its system OVCAR-3 xenografts. Put plainly: 28 day in vivo efficacy in OVCAR-3 xenografts. The note with it: oral. More on the design: species or system female NOD SCID mice. The procedure: Experiments were performed in female NOD SCID mice (GenPharmatech Co.). Animals were allowed to acclimate for 7 days before the study. The general health of the animals were evaluated by a veterinarian, and complete health checks were performed prior to the study. General procedures for animal care and housing were in accordance with the standard, Commission on Life Sciences, National Research Council, Standard Operating Procedures (SOPs) of Pharmaron, Inc. The mice were kept in laminar flow rooms at constant temperature and humidity with 3-5 mice in each cage. Animals were housed in polycarbonate cages which had dimensions of 300×180×150 mm^3 and in an environmentally monitored, well-ventilated room maintained at a temperature of 23±3° C. and a relative humidity of 40%-70%. Fluorescent lighting provided illumination approximately 12 hours per day. Animals had free access to irradiation sterilized dry granule food during the entire study period except for time periods specified by the protocol, as well as sterile drinking water in a bottle that was available ad libitum during the quarantine and study periods.
The OVCAR-3 (ATCC) tumor cell lines were maintained in vitro as a monolayer in RPMI 1640 medium supplemented with 20% heat inactivated FBS, at 37° C. in an atmosphere of 5% CO2 in air. The tumor cells were sub-cultured, not exceeding 4-5 passages, and cells growing in an exponential growth phase were harvested and counted for tumor inoculation. Each mouse was inoculated subcutaneously on the right flank with OVCAR-3 tumor cells (2×10^7) in 0.2 mL of RPMI-1640 with Matrigel (1:1) for model development.
Treatment was started when the mean tumor size reached approximately 150-200 mm^3, at which time the mice were randomized into treatment groups such that the average starting tumor size is similar for each treatment group. Animals were then treated with vehicle or indicated mg/kg (10-100) of compound at a given frequency (e.g., BID, QD, 4 days on treatment followed by 3 days off treatment) by oral gavage at a final dosing volume of 10 mL/kg.
The measurement of tumor size was conducted with a caliper and recorded twice per […] week. The tumor volume (TV) (mm^3) was estimated using the formula: TV=a×b^2/2, where “a” and “b” are long and short diameters of a tumor, respectively.
The TVs were used for calculation of the tumor growth inhibition and tumor growth delay. For the tumor growth inhibition (TGI), the value using the formula: […]
The “TVfinal” and “TVinitial” are the mean tumor volumes on the final day and initial day, respectively.
All statistical tests was conducted on GraphPad, and the level of significance was set at 5% or P<0.05. The group means and standard deviations were calculated for all measurement parameters. Two-way RM ANOVA followed by Tukeys post hoc comparisons of the means was applied among groups.
Additionally, after compound treatment, the animals were observed an additional 28 days without compound treatment.
The initial treatment period with Example 1 was 28 days, after which overall efficacy and tolerability were evaluated based on tumor volume and body weight changes observed during the treatment period (FIG. 2a and FIG. 2b).
The initial treatment period with Example 1 was 28 days, after which overall efficacy and tolerability were evaluated based on tumor volume and body weight changes observed during the treatment period (FIG. 3a and FIG. 3b).

Series [7] in a line: Tolerability (body weight) in 28 day OVCAR-3 xenograft study. The note with it: all concentrations dosed, 28 day treatment. The format is in vivo.
Series [8] can be described thus: Bone marrow concentration in 28 day OVCAR-3 xenograft study. Conditions: NOD SCID, mouse, 30 mg/kg QD oral, 28 day study. The format is in vivo, mice. As to the method: On Day 28, tissues were collected from animals. About 30-60 μL of whole blood was collected into tubes containing EDTA anticoagulant, and plasma was harvested by centrifugation at 4,000 g×5 min and stored at −80° C. until analysis. Plasma analysis followed the same protocol as for the Day 1 plasma analysis. Additionally, the femurs of the mice were cut and put in pre-weighed tubes. The bone marrow was harvested by centriguation at 8,000 g×15 min. Then, the total weight of both the bone marrow and the tube was recorded. The bone marrow was stored at −80° C. until analysis.
Samples were collected from animals 6 h after the last dose of compound and at 24 h after the last dose of compound.

Setting [9] is: 14 days culture, adjusted for binding to assay buffer.
Setting [10] is: day 28, 100 mg/kg once daily for 4 days followed by 3 days of no dosing.

The text below walks through data of US20250197428A1, “INHIBITORS OF KIF18A AND USES THEREOF” (ACCENT THERAPEUTICS, INC., priority 2022, published 2025).

Read-outs that look alike come from different tables or passages of the source.

Usually efflux ratio stands for a quotient of directional permeabilities that is used to spot active efflux. One may read the Cmax as the peak of the concentration-time curve.

KIF18A, sequence (Q8NI77 1-367): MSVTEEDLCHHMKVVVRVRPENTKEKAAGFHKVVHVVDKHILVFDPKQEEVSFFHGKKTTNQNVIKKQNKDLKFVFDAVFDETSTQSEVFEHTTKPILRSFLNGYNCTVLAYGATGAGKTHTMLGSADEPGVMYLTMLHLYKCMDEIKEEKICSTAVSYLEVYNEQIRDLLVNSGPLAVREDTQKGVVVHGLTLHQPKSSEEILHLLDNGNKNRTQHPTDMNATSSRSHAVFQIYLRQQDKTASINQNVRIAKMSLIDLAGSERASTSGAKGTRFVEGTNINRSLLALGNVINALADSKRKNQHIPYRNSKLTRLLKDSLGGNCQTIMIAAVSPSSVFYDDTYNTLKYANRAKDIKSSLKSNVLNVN
KIF18A, sequence (P02550 whole entry partner): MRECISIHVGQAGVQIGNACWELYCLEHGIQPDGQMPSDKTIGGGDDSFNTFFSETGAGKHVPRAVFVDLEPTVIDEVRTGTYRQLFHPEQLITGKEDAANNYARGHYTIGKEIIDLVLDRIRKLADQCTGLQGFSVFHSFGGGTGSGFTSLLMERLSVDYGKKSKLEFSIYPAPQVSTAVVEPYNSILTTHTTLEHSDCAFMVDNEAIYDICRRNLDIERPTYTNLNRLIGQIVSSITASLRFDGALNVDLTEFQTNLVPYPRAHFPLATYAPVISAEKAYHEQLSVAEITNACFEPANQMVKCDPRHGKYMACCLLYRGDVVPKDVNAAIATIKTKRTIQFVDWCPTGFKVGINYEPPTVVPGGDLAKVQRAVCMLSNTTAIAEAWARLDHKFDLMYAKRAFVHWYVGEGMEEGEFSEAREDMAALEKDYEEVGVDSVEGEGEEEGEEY
KIF18A, sequence (P02554 whole entry partner): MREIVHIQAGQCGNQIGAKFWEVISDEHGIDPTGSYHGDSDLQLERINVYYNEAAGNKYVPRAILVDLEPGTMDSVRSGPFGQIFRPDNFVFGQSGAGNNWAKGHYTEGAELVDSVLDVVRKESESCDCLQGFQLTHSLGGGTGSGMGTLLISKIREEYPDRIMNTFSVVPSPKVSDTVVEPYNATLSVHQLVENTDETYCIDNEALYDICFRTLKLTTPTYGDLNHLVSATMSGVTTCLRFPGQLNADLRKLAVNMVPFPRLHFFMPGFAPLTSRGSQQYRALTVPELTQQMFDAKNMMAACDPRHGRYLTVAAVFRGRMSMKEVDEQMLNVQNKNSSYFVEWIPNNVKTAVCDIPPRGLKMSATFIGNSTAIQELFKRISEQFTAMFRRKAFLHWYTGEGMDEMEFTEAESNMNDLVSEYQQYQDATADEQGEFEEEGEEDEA

Turning to `Cc1cc(NC(=O)c2ccc(NS(=O)(=O)CCO)cc2N2CC[C@@]3(C)C[C@H]3C2)nc(N2CCC(F)(F)CC2)n1` [Example 36], the IC50 in series [1] is less than 100 nM; in series [2] (OVCAR-3, 96 h, 4-day assay) it was 100 to 500 nM; in series [3] (setting [9]), 82 nM.
Compound `Cc1cc(NC(=O)c2ccc(NS(=O)(=O)CCO)cc2N2CC[Si](C)(C)CC2)nc(C2CCC(F)(F)CC2)n1` [Example 1, N-(2-(4,4-difluorocyclohexyl)-6-methylpyrimidin-4-yl)-2-(4,4-dimethyl-1,4-azasilinan-1-yl)-4-((2-hydroxyethyl)sulfonamido)benzamide] displayed an IC50 in series [1] of less than 100 nM. For the same compound, in series [2] (OVCAR-3, 96 h, 4-day assay), the IC50 was less than 100 nM. For the same compound, the efflux ratio at 2 h, 5 μM in series [4] is less than 10. For the same compound, in series [3] (setting [9]), the IC50 came to 17 nM. In series [5], the “IV Clearance” value is reported as 3.6 mL/ming/kg, the Vd is 2.7 L/kg, the highest level (Cmax) was 2900 ng/mL and the half-life was 8.9 h. Further, in series [6] (setting [10]), the “% T/C” value is −2% and the “% TGI” value turned out to be 102%. The “Tolerability based on body weight” value in series [7] was “well tolerated”.
For the compound `Cc1cc(NC(=O)c2ccc(NS(=O)(=O)CCO)cc2N2CC[C@@]3(F)CC[C@H]3C2)nc(N2CCC(F)(F)CC2)n1` (single isomer, unassigned) [Example 50b], the IC50 in series [1] is less than 100 nM. The IC50 in series [2] (OVCAR-3, 168 h, 7-day assay) fell in the range of 100 to 500 nM. The efflux ratio at 2 h, 5 μM in series [4] is less than 10. In series [5], the “IV Clearance” value was 0.74 mL/ming/kg, the Vd turned out to be 0.51 L/kg, the Cmax came to 10100 ng/mL and the half-life is 10.6 h.
`Cc1cc(NC(=O)c2ccc(NS(=O)(=O)CCO)cc2N2CC[Si](C)(C)CC2)nc(N2CCC(F)(F)CC2)n1` [Example 9, N-[2-(4,4-difluoropiperidin-1-yl)-6-methylpyrimidin-4-yl]-2-(4,4-dimethyl-1,4-azasilinan-1-yl)-4-(2-hydroxyethanesulfonamido)benzamide]: the IC50 in series [1] is 100 to 500 nM. In addition, the IC50 in series [2] (OVCAR-3, 96 h, 4-day assay) is less than 100 nM. For the same compound, the efflux ratio at 2 h, 5 μM in series [4] is less than 10. Besides, in series [5], the “IV Clearance” value came to 1.7 mL/ming/kg, the Vd is 2.5 L/kg, the Cmax was found to be 3100 ng/mL and the half-life was 14.5 h. In addition, in series [6] (day 28, 100 mg/kg once daily), the “% T/C” value is given as −4% and the “% TGI” value came to 104%. The “Tolerability based on body weight” value in series [7] was “well tolerated”.
Regarding `Cc1cc(NC(=O)c2ccc(NS(=O)(=O)CCO)cc2N2CCC3(CC2)CC3)nc(N2CCC(F)(F)CC2)n1` [Compound A, reference compound], the IC50 in series [2] (OVCAR-3, 96 h, 4-day assay) was less than 100 nM. Further, in series [5], the “IV Clearance” value is listed as 4.1 mL/ming/kg and the Vd was found to be 2 L/kg. Besides, in series [8] (read-out: Bone marrow concentration at 6 h post-last dose), the concentration at 6 h is 17000 ng/g. Besides, in series [8] (read-out: Bone marrow concentration at 24 h post-last dose), the concentration at 24 h is 4100 ng/g.
Regarding `Cc1cc(NC(=O)c2cc(F)c(NS(=O)(=O)CCO)cc2N2CC[Si](C)(C)CC2)nc(N2CCC(F)(F)CC2)c1` [Example 107], the IC50 in series [1] was less than 100 nM; in series [2] (OVCAR-3, 168 h, 7-day assay), less than 100 nM; in series [3] (setting [9]) it was 47 nM. In addition, in series [4], the efflux ratio at 2 h, 5 μM is less than 10.
Regarding `C[Si]1(C)CCN(c2cc(NS(=O)(=O)CCO)c(F)cc2C(=O)Nc2cccc(N3CCC(F)(F)CC3)n2)CC1` [Example 14], the IC50 is less than 100 nM in series [1]; less than 100 nM in series [2] (OVCAR-3, 96 h, 4-day assay); 61 nM in series [3].
As for `Cc1cc(NC(=O)c2c(F)cc(NS(=O)(=O)CCO)cc2N2CC[C@@]3(C(F)F)C[C@H]3C2)nc(N2CCC(F)(F)CC2)n1` [Example 72], the IC50 in series [1] is less than 100 nM; in series [2] (OVCAR-3, 168 h, 7-day assay) it was 100 to 500 nM. Also, in series [4], the efflux ratio at 2 h, 5 μM is no less than 10.
